Measurements: BindingDB's records for doi:10.1002/(SICI)1098-2396(200002)35:2<79::AID-SYN1>3.0.CO;2-X (Institut De Recherches Servier, 2000)
Where “and” joins values, the source holds several entries; their conditions need not be identical. Equal values may be shown once. Each block holds one compound with its values, some of them ahead of it.

Columns and labels:
[1] = biological target: T1, 5-hydroxytryptamine receptor 2C (Sus scrofa, UniProt K7GSR7)
T1 sequence (K7GSR7 whole entry): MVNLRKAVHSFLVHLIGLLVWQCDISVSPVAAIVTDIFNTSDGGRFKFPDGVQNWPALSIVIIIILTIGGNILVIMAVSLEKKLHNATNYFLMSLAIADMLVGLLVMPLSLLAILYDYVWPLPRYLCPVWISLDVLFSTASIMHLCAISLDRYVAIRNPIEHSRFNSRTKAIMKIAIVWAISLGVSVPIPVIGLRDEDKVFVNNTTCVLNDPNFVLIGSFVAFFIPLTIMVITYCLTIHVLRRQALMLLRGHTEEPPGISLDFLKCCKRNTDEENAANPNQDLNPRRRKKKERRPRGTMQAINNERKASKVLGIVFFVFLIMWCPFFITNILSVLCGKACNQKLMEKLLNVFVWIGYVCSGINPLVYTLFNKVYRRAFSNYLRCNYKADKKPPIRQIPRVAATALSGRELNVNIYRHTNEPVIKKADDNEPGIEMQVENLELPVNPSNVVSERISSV

[2] = biological target: 5-hydroxytryptamine receptor 1B (Cavia porcellus, UniProt O08892)
D(2) dopamine receptor = D(2) dopamine receptor (Homo sapiens, UniProt P14416)
[3] = biological target: 5-hydroxytryptamine receptor 1D (Homo sapiens, UniProt P28221)
[4] = biological target: T2, Alpha-2A adrenergic receptor (Homo sapiens, UniProt P08913)
T2 sequence (P08913 whole entry): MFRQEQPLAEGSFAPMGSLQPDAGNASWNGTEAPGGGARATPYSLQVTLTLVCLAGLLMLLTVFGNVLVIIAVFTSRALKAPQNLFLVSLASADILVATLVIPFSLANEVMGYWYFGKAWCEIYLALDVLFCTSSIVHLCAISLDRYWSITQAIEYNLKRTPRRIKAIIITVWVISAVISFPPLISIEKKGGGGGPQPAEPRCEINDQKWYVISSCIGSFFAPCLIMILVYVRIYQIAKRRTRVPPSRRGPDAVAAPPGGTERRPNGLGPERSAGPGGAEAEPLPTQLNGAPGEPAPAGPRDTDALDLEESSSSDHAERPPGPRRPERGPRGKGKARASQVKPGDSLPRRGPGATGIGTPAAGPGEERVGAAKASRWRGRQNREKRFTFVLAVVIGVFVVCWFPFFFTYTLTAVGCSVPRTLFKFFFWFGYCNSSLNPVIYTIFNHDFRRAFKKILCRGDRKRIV

[5] = biological target: T3, 5-hydroxytryptamine receptor 3A (Mus musculus, UniProt P23979)
T3 sequence (P23979 whole entry): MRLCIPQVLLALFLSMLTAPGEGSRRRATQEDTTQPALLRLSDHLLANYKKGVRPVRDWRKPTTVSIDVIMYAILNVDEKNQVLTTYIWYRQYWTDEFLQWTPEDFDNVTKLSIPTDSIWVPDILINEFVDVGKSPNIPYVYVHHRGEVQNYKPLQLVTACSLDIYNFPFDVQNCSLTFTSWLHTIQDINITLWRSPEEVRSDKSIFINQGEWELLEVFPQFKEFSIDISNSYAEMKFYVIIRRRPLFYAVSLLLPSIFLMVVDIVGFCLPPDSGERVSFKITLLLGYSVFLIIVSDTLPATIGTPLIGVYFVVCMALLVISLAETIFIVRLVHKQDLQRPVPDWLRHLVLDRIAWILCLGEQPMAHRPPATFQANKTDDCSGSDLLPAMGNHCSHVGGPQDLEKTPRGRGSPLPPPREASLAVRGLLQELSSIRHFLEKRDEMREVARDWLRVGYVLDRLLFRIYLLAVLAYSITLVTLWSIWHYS

Chain of 5-hydroxytryptamine receptor 1B (O08892 whole entry): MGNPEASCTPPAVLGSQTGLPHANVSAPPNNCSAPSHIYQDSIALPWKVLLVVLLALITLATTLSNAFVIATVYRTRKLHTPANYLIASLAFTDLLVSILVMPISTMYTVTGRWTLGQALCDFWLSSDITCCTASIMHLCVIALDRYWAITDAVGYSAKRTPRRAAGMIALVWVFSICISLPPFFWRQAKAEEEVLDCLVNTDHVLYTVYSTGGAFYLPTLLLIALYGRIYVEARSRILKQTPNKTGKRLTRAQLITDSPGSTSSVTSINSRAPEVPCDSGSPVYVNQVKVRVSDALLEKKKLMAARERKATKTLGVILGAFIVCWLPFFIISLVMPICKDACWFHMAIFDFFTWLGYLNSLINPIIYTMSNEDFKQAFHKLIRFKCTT
Chain of 5-hydroxytryptamine receptor 1D (P28221 whole entry): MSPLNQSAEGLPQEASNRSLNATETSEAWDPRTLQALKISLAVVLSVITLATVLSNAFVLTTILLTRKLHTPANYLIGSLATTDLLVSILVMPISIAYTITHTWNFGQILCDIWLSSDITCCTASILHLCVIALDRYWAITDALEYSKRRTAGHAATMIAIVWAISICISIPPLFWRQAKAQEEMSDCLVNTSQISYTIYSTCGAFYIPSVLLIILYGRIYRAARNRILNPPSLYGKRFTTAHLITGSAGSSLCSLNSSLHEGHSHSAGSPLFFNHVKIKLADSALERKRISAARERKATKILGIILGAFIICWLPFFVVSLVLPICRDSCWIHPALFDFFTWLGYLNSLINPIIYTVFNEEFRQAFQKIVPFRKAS
Chain of D(2) dopamine receptor (P14416 whole entry): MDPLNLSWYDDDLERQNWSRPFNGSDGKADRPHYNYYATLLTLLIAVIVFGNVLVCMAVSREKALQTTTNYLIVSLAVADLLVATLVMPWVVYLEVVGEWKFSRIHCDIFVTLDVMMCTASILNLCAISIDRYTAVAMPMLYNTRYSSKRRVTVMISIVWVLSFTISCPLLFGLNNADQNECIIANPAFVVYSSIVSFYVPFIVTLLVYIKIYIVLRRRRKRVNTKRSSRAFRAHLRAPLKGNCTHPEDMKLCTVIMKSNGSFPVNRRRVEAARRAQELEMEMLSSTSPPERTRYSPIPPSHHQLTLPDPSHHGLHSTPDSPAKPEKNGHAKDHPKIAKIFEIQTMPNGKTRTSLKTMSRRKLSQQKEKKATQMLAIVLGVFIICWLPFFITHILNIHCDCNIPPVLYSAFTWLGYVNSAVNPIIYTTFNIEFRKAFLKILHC

SMILES: NCCc1c[nH]c2ccccc12 [1H-indole-3-ethanamine]
Ki [1]: 79.4 nM

SMILES: COC(=O)[C@@H]1[C@H]2C[C@H]3c4[nH]c5ccccc5c4CCN3C[C@@H]2CC[C@@H]1O [yohimbic acid methyl ester]
Ki [2]: 50.1 nM | Ki (D(2) dopamine receptor): 398 nM | Ki [3]: 19.9 nM and 25.1 nM

Ki [4]: 1 nM
SMILES: COC1(C2=NCCN2)COc2ccccc2O1 (configuration not stated) [RX821002]

SMILES: NCCc1c[nH]c2ccc(O)cc12 [[3H]-5-HT]
Ki [2]: 2.51 nM

Ki [5]: 3.98 nM
SMILES: Cc1nccn1CC1CCc2c(c3ccccc3n2C)C1=O (configuration not stated) [NSC_68647]
